Patent US9708336B2, “Metallo-beta-lactamase inhibitors” (priority 2014, dated 2017)
pIC50: −log10 of the molar value. Like-named read-outs stand apart in the source and are kept apart here.

Legend:
NDM-1 = NDM-1 (Klebsiella pneumoniae, UniProt C7C422); experiment: biochemical; format: biochemical; details: read-out: NDM-1 IC50
Procedure: Enzyme Activity: Determination of IC50
The Class B enzyme activities were measured in the presence of the test inhibitor in a fluorescence assay against a commercially available substrate consisting of a cephalosporin core linking 7-hydroxycoumarin to fluorescein (CCF2-FA). The enzyme (NDM-1, IMP-1 or VIM-1) and the substrate were diluted in 100 mM KH2PO4 buffer (pH 7) containing 0.005% Tween-20 and 10 μM ZnSO4. […] The test inhibitor was dissolved in dimethylsulfoxide and diluted 1:50 in the assay, resulting in a final concentration range of 20 uM to 0.00063 uM. In a 384-well microplate, the test inhibitor was incubated with the metallo-β-lactamase enzyme and the substrate for 2 hours at 25° C. Fluorescence at 460 nm following excitation at 405 nm was measured. The IC50 value was determined from semi-logarithmic plots of enzyme inhibition versus inhibitor concentration, with a curve generated using a 4-parameter fit.

IMP-1 = IMP-1 (Serratia marcescens, UniProt P52699); experiment: biochemical; format: biochemical
VIM-1 = VIM-1 (Pseudomonas aeruginosa (strain ATCC 15692 / DSM 22644 / CIP 104116 / JCM 14847 / LMG 12228 / 1C / PRS 101 / PAO1), UniProt A0A0F7KYQ8); experiment: Enzyme activity: determination of IC50, fluorescence assay with CCF2-FA substrate (VIM-1); format: biochemical
[1] = tested on: Escherichia coli expressing NDM-1 (CLB30016); experiment: Antibiotic potentiation activity: synergistic concentration (MITC95) with imipenem, OD600 growth; format: cell-based; details: for Escherichia coli expressing NDM-1 (CLB 30016) MITC95: concentration giving 95% inhibition of bacterial growth
Method in brief: (§1)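 Inoculum: saline suspension of overnight colonies, 1:100 into 1.1× CAMHB. Imipenem 4 μg/ml final (alt. 1 μg/ml) + compound; 35 °C, 22–24 h; absorbance read-out.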

[2] = tested on: Klebsiella pneumoniae expressing VIM-1 (IHMA599644); experiment: as above; format: cell-based; details: for Klebsiella pneumoniae expressing VIM-1 (IHMA 599644) MITC95: concentration giving 95% inhibition of bacterial growth
Method in brief: as §1

[3] = tested on: Serratia marcescens expressing IMP-1 (CL5741); experiment: as above; format: cell-based; details: for Serratia marcescens expressing IMP-1 (CL5741) MITC95: concentration giving 95% inhibition of bacterial growth
Method in brief: as §1

[4] = NDM-1 enzyme, CCF2-FA fluorescence assay
[5] = IMP-1 enzyme, CCF2-FA fluorescence assay, read-out: IMP-1 IC50
[6] = VIM-1 enzyme, CCF2-FA fluorescence assay, read-out: VIM-1 IC50
[7] = Escherichia coli expressing NDM-1 (CLB30016), 95% growth inhibition
[8] = Klebsiella pneumoniae expressing VIM-1 (IHMA599644), 95% growth inhibition
[9] = Serratia marcescens expressing IMP-1 (CL5741), 95% growth inhibition
[10] = fluorescence assay with CCF2-FA substrate
[11] = fluorescence assay with CCF2-FA substrate, read-out: IMP-1 IC50
[12] = fluorescence assay with CCF2-FA substrate, read-out: VIM-1 IC50
[13] = NDM-1 enzyme, CCF2-FA substrate
[14] = IMP-1 enzyme, CCF2-FA substrate, read-out: IMP-1 IC50
[15] = VIM-1 IC50, VIM-1 enzyme, CCF2-FA substrate
[16] = (CLB30016, NDM-1), 95% growth inhibition
[17] = Klebsiella pneumoniae IHMA599644 (VIM-1), 95% growth inhibition
[18] = Serratia marcescens CL5741 (IMP-1), 95% growth inhibition
[19] = VIM-1 enzyme, CCF2-FA substrate, read-out: VIM-1 IC50

Sequence of NDM-1 (C7C422 whole entry, looked up, species assumed): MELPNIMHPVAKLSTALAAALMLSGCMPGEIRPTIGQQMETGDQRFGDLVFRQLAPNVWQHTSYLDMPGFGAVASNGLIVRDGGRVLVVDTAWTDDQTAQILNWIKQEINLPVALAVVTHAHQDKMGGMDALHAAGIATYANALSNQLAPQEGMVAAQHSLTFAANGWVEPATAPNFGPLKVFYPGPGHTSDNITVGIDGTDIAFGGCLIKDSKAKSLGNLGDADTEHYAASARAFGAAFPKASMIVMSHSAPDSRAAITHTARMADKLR
Sequence of IMP-1 (P52699 whole entry, looked up): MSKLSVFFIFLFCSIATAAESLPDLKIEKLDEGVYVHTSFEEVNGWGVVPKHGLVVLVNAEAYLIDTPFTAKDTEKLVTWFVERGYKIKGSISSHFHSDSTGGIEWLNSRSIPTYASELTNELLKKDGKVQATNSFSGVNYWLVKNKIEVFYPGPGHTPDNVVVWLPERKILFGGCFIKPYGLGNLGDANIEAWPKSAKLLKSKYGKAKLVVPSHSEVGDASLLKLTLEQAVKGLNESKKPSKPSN

Structure (SMILES)	pIC50 (NDM-1; [13])	pIC50 (IMP-1; [14])	Escherichia coli MITC95 [1, 16]	Klebsiella pneumoniae MITC95 [2, 17]	Serratia marcescens MITC95 [3, 18]	pIC50 (VIM-1; [19])	other results
CC(O)C1CCN(c2ccnc(S(N)(=O)=O)c2-c2nnn[nH]2)CC1 (stereo not drawn) [Example 244, 4-[4-(1-hydroxyethyl)piperidin-1-yl]-3-(1H-tetrazol-5-yl)pyridine-2-sulfonamide]	–	–	–	–	–	–	pIC50 (NDM-1; [4]): 7.29; pIC50 (IMP-1; [5]): 6.17; pIC50 (VIM-1; [6]): 6.90; Escherichia coli MITC95 [1, 7]: 1.563 µM; Klebsiella pneumoniae MITC95 [2, 8]: 37.5 µM; Serratia marcescens MITC95 [3, 9]: 18.75 µM
C[N+]1(C)CCC(c2ccc(-c3cccc(S(N)(=O)=O)c3-c3nnn[nH]3)cc2)CC1.O=C([O-])C(F)(F)F [Example 33, 1,1-dimethyl-4-(3′-sulfamoyl-2′-(1H-tetrazol-5-yl)-[1,1′-biphenyl]-4-yl)piperidin-1-ium 2,2,2-trifluoroacetate]	–	–	–	–	–	–	pIC50 (NDM-1; [10]): 7.78; pIC50 (IMP-1; [11]): 7.15; pIC50 (VIM-1; [12]): 6.08; Escherichia coli expressing NDM-1 (CLB 30016) MITC95 [1]: 1.172 µM; Klebsiella pneumoniae expressing VIM-1 (IHMA 599644) MITC95 [2]: 100 µM; Serratia marcescens expressing IMP-1 (CL5741) MITC95 [3]: 1.172 µM
NC1(CN2CCC(c3ccc(-c4ccc(C(F)(F)F)c(S(N)(=O)=O)c4-c4nnn[nH]4)cc3)CC2)CC1 [Example 672, 4′-{1-[(1-aminocyclopropyl)methyl]piperidin-4-yl}-2-(1H-tetrazol-5-yl)-4-(trifluoromethyl)biphenyl-3-sulfonamide]	8.44	8.60	6.25 µM	75 µM	4.688 µM	–	pIC50 (VIM-1; [15]): 8.47
NS(=O)(=O)c1nccc(NCCC2CCCCC2)c1-c1nnn[nH]1 [Example 236, 4-[(2-cyclohexylethyl)amino]-3-(1H-tetrazol-5-yl)pyridine-2-sulfonamide]	–	–	–	–	–	–	pIC50 (NDM-1; [10]): 7.41; pIC50 (IMP-1; [11]): 6.65; pIC50 (VIM-1; [12]): 6.73; Escherichia coli expressing NDM-1 (CLB 30016) MITC95 [1]: 18.75 µM; Klebsiella pneumoniae expressing VIM-1 (IHMA 599644) MITC95 [2]: >200 µM; Serratia marcescens expressing IMP-1 (CL5741) MITC95 [3]: 25 µM
NS(=O)(=O)c1c(C(F)(F)F)ccc(-c2ccc(C3CCN(C[C@H]4CNCCO4)CC3)cc2)c1-c1nnn[nH]1 [Example 670, 4′-{1-[(2R)-morpholin-2-ylmethyl]piperidin-4-yl}-2-(1H-tetrazol-5-yl)-4-(trifluoromethyl)biphenyl-3-sulfonamide]	8.39	8.97	1.563 µM	25 µM	3.125 µM	8.45	–
NC(=O)C1CCN(c2ccc(C(F)(F)F)c(S(N)(=O)=O)c2-c2nnn[nH]2)CC1 [Example 656, 1-[3-sulfamoyl-2-(1H-tetrazol-5-yl)-4-(trifluoromethyl)phenyl]piperidine-4-carboxamide]	8.70	8.55	0.5781 µM	3.125 µM	0.125 µM	9.10	–
NS(=O)(=O)c1cccc(-c2cccc3sc(Br)nc23)c1-c1nnn[nH]1 [Example 421, 3-(2-Bromobenzo[d]thiazol-4-yl)-2-(1H-tetrazol-5-yl)benzenesulfonamide]	–	–	–	–	–	–	pIC50 (NDM-1; [4]): 9.54; pIC50 (IMP-1; [5]): 7.72; pIC50 (VIM-1; [6]): 8.64; Escherichia coli MITC95 [1, 7]: 3.125 µM; Klebsiella pneumoniae MITC95 [2, 8]: >200 µM; Serratia marcescens MITC95 [3, 9]: 25 µM
NCC1CCC(N2CC(c3ccc(-c4ccc(C(F)(F)F)c(S(N)(=O)=O)c4-c4nnn[nH]4)cc3)C2)CC1 (stereo not drawn) [Example 813, 4′-{1-[4-(aminomethyl)cyclohexyl]azetidin-3-yl}-2-(1H-tetrazol-5-yl)-4-(trifluoromethyl)biphenyl-3-sulfonamide]	–	–	–	–	–	–	pIC50 (NDM-1; [10]): 8.20; pIC50 (IMP-1; [11]): 8.01; pIC50 (VIM-1; VIM-1 IC50, fluorescence assay with CCF2-FA substrate): 7.69; Escherichia coli MITC95 ([1]; CLB30016 (NDM-1), 95% inhibition of bacterial growth): 6.25 µM; Klebsiella pneumoniae MITC95 ([2]; IHMA599644 (VIM-1), 95% inhibition of bacterial growth): 100 µM; Serratia marcescens MITC95 ([3]; CL5741 (IMP-1), 95% inhibition of bacterial growth): 6.25 µM
NS(=O)(=O)c1c(C(F)(F)F)ccc([C@H]2CC[C@H](NC3CC4(CCNCC4)C3)CC2)c1-c1nnn[nH]1 [Example 685, 3-[4-(7-azaspiro[3.5]non-2-ylamino)cyclohexyl]-2-(1H-tetrazol-5-yl)-6-(trifluoromethyl)benzene sulfonamide]	7.52	7.12	1.563 µM	25 µM	6.25 µM	8.31	–
Cc1ccc(-c2ccc(C(F)(F)F)c(S(N)(=O)=O)c2-c2nnn[nH]2)c2[nH]c(N)nc12 [Example 568, 3-(2-amino-4-methyl-1H-benzo[d]imidazol-7-yl)-2-(1H-tetrazol-5-yl)-6-(trifluoromethyl)benzenesulfonamide]	10.01	8.93	0.3906 µM	1.563 µM	1.563 µM	9.79	–
NC[C@H]1CC[C@H](c2ccc(C(F)(F)F)c(S(N)(=O)=O)c2-c2nnn[nH]2)CC1 [Example 501, 3-(trans 4-(aminomethyl)cyclohexyl)-2-(1H-tetrazol-5-yl)-6-(trifluoromethyl)benzenesulfonamide]	8.82	–	1.172 µM	1.563 µM	1.563 µM	9.29	pIC50 (IMP-1): 8.27
NS(=O)(=O)c1c(C(F)(F)F)ccc(-c2cccc3c2CNC3=O)c1-c1nn[nH]n1 [Example 525, 3-(1-Oxoisoindolin-4-yl)-2-(2H-tetrazol-5-yl)-6-(trifluoromethyl)benzenesulfonamide]	9.27	8.16	3.125 µM	4.688 µM	12.5 µM	10.05	–
NS(=O)(=O)c1nccc(N2CCC(O)CC2)c1-c1nnn[nH]1 [Example 242, 4-(4-hydroxypiperidin-1-yl)-3-(1H-tetrazol-5-yl)pyridine-2-sulfonamide]	–	–	–	–	–	–	pIC50 (NDM-1; [4]): 6.99; pIC50 (IMP-1; [5]): 5.95; pIC50 (VIM-1; [6]): 6.57; Escherichia coli MITC95 [1, 7]: 0.3906 µM; Klebsiella pneumoniae MITC95 [2, 8]: 6.25 µM; Serratia marcescens MITC95 [3, 9]: 25 µM
CC(C)(O)C1CN(c2ccc(-c3cccc(S(N)(=O)=O)c3-c3nnn[nH]3)cn2)C1 [Example 624, 3-[6-[3-(1-hydroxy-1-methyl-ethyl)azetidin-1-yl]-3-pyridyl]-2-(1H-tetrazol-5-yl)benzenesulfonamide]	7.99	7.06	7.813 µM	>200 µM	12.5 µM	6.25	–
NCC[C@H]1CC[C@@H](c2ccc(C(F)(F)F)c(S(N)(=O)=O)c2-c2nnn[nH]2)CC1 [Example 498, 3-(cis 4-(2-aminoethyl)cyclohexyl)-2-(1H-tetrazol-5-yl)-6-(trifluoromethyl)benzenesulfonamide]	8.67	8.26	0.3906 µM	4.688 µM	0.1953 µM	–	pIC50 (VIM-1; [15]): 8.20
